Key:
U2OS = test: OncoPanel cell proliferation assay, U2OS; type: cell-based, human; details: for GI50: read-out: Cell Count GI50
Protocol: (§1) Cells were seeded into 384-well plates and incubated in a humidified atmosphere of 5% CO2 at 37° C. Compounds were added the day following cell seeding. At the same time, a time zero untreated cell plate was generated. After a 3-day incubation period, cells were fixed and stained to allow fluorescence imaging of nuclei. Compounds (1 mM stock solutions) were serially diluted in half-log steps from the highest test concentration ([…]), and assayed over 10 concentrations with a maximum assay concentration of 0.1% DMSO. Automated fluorescence microscopy was carried out using a Molecular Devices ImageXpress Micro XL high-content imager, and images were collected with a 4× objective. 16-bit TIFF images were acquired and analyzed with MetaXpress 5.1.0.41 software.
(§2) Cell proliferation was measured by the fluorescence intensity of an incorporated nuclear dye. The output is referred to as the relative cell count, where the measured nuclear intensity is transformed to percent of control (POC) using the following formula: […]
(§3) Cellular response parameters were calculated using nonlinear regression to a sigmoidal single-site dose response model:
(§4) GI50 is the concentration needed to reduce the observed growth by half (midway between the curve maximum and the time zero value). […] In rare instances, values <0 or >10 may be observed. […] Curve-fitting, calculations, and report generation was performed using a custom data reduction engine and MathIQ based software (AIM).

NCI-H510A = test: OncoPanel cell proliferation assay, NCI-H510A; type: cell-based, human; details: for EC50: read-out: Cell Count EC50; for GI50: read-out: Cell Count GI50
Protocol: as §1, with “Cells were grown in RPMI 1640, 10% FBS, 2 mM L-alanyl-L-glutamine, 1 mM Na pyruvate, or a special medium. Cells” for “Cells”
as §2, §3
(§5) EC50 is the test compound concentration at the curve inflection point or half the effective response (parameter C of the fitted curve solution). GI50 is the concentration needed to reduce the observed growth by half (midway between the curve maximum and the time zero value). “Cell Count Activity Area” is an estimate of the integrated area above the curve (Barretina, et al. The Cancer Cell Line Encyclopedia enables predictive modelling of anticancer drug sensitivity. Nature 483: 603-607). […] In rare instances, values <0 or >10 may be observed. […] Curve-fitting, calculations, and report generation was performed using a custom data reduction engine and MathIQ based software (AIM).

G-402 = test: OncoPanel cell proliferation assay, G-402; type: cell-based, human; details: for GI50: read-out: Cell Count GI50
Protocol: as §1, with “Cells were grown in RPMI 1640, 10% FBS, 2 mM L-alanyl-L-glutamine, 1 mM Na pyruvate, or a special medium. Cells” for “Cells”
as §2, §3, §5

TF-1 = test: OncoPanel cell proliferation assay, TF-1; type: cell-based, human; details: for GI50: read-out: Cell Count GI50; for IC50: read-out: Cell Count IC50
Protocol: as §1, with “Cells were grown in RPMI 1640, 10% FBS, 2 mM L-alanyl-L-glutamine, 1 mM Na pyruvate, or a special medium. Cells” for “Cells”
as §2, §3, §5

SK-NEP-1 = test: OncoPanel cell proliferation assay, SK-NEP-1; details: for EC50: SK-NEP-1, read-out: Cell Count EC50; for GI50: SK-NEP-1, read-out: Cell Count GI50; for Cell Count Activity Area: SK-NEP-1
Protocol: (§6) Cells were seeded into 384-well plates and incubated in a humidified atmosphere of 5% CO2 at 37° C. Compounds were added the day following cell seeding. At the same time, a time zero untreated cell plate was generated. After a 3-day incubation period, cells were fixed and stained to allow fluorescence imaging of nuclei. Compounds (1 mM stock solutions) were serially diluted in half-log steps from the highest test concentration (1 micromol), and assayed over 10 concentrations with a maximum assay concentration of 0.1% DMSO. Automated fluorescence microscopy was carried out using a Molecular Devices ImageXpress Micro XL high-content imager, and images were collected with a 4× objective. 16-bit TIFF images were acquired and analyzed with MetaXpress 5.1.0.41 software.

DMS114 = test: OncoPanel cell proliferation assay, DMS114; type: cell-based, human; details: for EC50: DMS-114, read-out: Cell Count EC50; for GI50: DMS-114, read-out: Cell Count GI50
Protocol: as §1, §2, §3, §4

Hs 729 = test: OncoPanel cell proliferation assay, Hs 729; type: cell-based, human; details: for GI50: read-out: Cell Count GI50; for IC50: read-out: Cell Count IC50
Protocol: as §1, with “Cells were grown in RPMI 1640, 10% FBS, 2 mM L-alanyl-L-glutamine, 1 mM Na pyruvate, or a special medium. Cells” for “Cells”
as §2, §3, §5

CHP-212 = test: OncoPanel cell proliferation assay, CHP-212; details: for Cell Count Activity Area: CHP-212; for GI50: CHP-212, read-out: Cell Count GI50; for IC50: CHP-212, read-out: Cell Count IC50
Protocol: as §6

SHP-77 = test: OncoPanel cell proliferation assay, SHP-77; details: for EC50 / GI50 / IC50: Homo sapiens; for EC50: SHP77, read-out: Cell Count EC50; for GI50: SHP77, read-out: Cell Count GI50; for IC50: SHP77, read-out: Cell Count IC50; for Cell Count Activity Area: SHP-77
Protocol: as §6

RKOE6 = test: OncoPanel cell proliferation assay, RKOE6; details: for EC50 / GI50 / IC50: Homo sapiens; for EC50: RKOE6, read-out: Cell Count EC50; for GI50: RKOE6, read-out: Cell Count GI50; for IC50: RKOE6, read-out: Cell Count IC50; for Cell Count Activity Area: RKOE6
Protocol: as §6

U-87 MG = test: OncoPanel cell proliferation assay, U-87 MG; type: cell-based, human; details: for GI50: read-out: Cell Count GI50
Protocol: as §1, with “Cells were grown in RPMI 1640, 10% FBS, 2 mM L-alanyl-L-glutamine, 1 mM Na pyruvate, or a special medium. Cells” for “Cells”
as §2, §3, §5

A101D = test: OncoPanel cell proliferation assay, A101D; type: cell-based, human; details: for EC50: read-out: Cell Count EC50; for GI50: read-out: Cell Count GI50
Protocol: as §1, with “Cells were grown in RPMI 1640, 10% FBS, 2 mM L-alanyl-L-glutamine, 1 mM Na pyruvate, or a special medium. Cells” for “Cells”
as §2, §3, §5

[1] = Homo sapiens, read-out: Cell Count EC50
[2] = Homo sapiens, read-out: Cell Count IC50

Structure (SMILES): CN[C@@H]1C[C@H]2O[C@@](C)([C@@H]1OC)n1c3ccccc3c3c4c(c5c6ccccc6n2c5c31)C(=O)NC4 [Staurosporine, reference compound]
- GI50 (U2OS; Homo sapiens): 2.63 nM
- Cell Count Activity Area (NCI-H510A): 1.68
- EC50 (NCI-H510A; Homo sapiens): 39.8 nM
- GI50 (NCI-H510A; Homo sapiens): 56.5 nM
- Cell Count Activity Area (G-402): 5.93
- GI50 (G-402; Homo sapiens): 0.664 nM
- Cell Count Activity Area (TF-1): 3.31
- GI50 (TF-1; Homo sapiens): 10.9 nM
- IC50 (TF-1; Homo sapiens): 11.9 nM
- EC50 (SK-NEP-1; Homo sapiens): 48.2 nM
- GI50 (SK-NEP-1; Homo sapiens): 36.5 nM
- Cell Count Activity Area (SK-NEP-1): 2.78
- EC50 (DMS114; Homo sapiens): 21 nM
- GI50 (DMS114; Homo sapiens): 3.35 nM
- Cell Count Activity Area (Hs 729): 4.06
- GI50 (Hs 729; Homo sapiens): 0.898 nM
- IC50 (Hs 729; Homo sapiens): 7.04 nM
- Cell Count Activity Area (CHP-212): 4.80
- GI50 (CHP-212; Homo sapiens): 2.59 nM
- IC50 (CHP-212; Homo sapiens): 4.78 nM
- EC50 (SHP-77): 28.1 nM
- GI50 (SHP-77): 24.2 nM
- IC50 (SHP-77): 30.8 nM
- Cell Count Activity Area (SHP-77): 3.16
- EC50 (RKOE6): 16.8 nM
- GI50 (RKOE6): 13.2 nM
- IC50 (RKOE6): 17.9 nM
- Cell Count Activity Area (RKOE6): 3.96
- Cell Count Activity Area (U-87 MG): 3.25
- GI50 (U-87 MG; Homo sapiens): 0.836 nM
- Cell Count Activity Area (A101D): 4.56
- EC50 (A101D; Homo sapiens): 7.02 nM
- GI50 (A101D; Homo sapiens): 2.65 nM

Structure (SMILES): CO[C@H]1C[C@@H]2CC[C@@H](C)[C@@](O)(O2)C(=O)C(=O)N2CCCC[C@H]2C(=O)O[C@H]([C@H](C)C[C@@H]2CC[C@@H](O)[C@H](OC)C2)CC(=O)[C@H](C)/C=C(\C)[C@@H](O)[C@@H](OC)C(=O)[C@H](C)C[C@H](C)/C=C/C=C/C=C/1C [Rapamycin, reference compound]
- Cell Count Activity Area (U2OS): 3.04
- EC50 (U2OS; [1]): 0.65 nM
- GI50 (U2OS; Homo sapiens): 2.54 nM
- IC50 (U2OS; [2]): > 1000 nM
- Cell Count Activity Area (NCI-H510A): 1.63
- EC50 (NCI-H510A; Homo sapiens): > 1000 nM
- GI50 (NCI-H510A; Homo sapiens): > 1000 nM
- IC50 (NCI-H510A; [2]): > 1000 nM
- Cell Count Activity Area (G-402): 4.68
- EC50 (G-402; [1]): 0.111 nM
- GI50 (G-402; Homo sapiens): 0.182 nM
- IC50 (G-402; [2]): 0.334 nM
- Cell Count Activity Area (TF-1): 1.52
- EC50 (TF-1; [1]): > 1000 nM
- GI50 (TF-1; Homo sapiens): > 1000 nM
- IC50 (TF-1; Homo sapiens): > 1000 nM
- EC50 (SK-NEP-1; Homo sapiens): 0.293 nM
- GI50 (SK-NEP-1; Homo sapiens): 0.361 nM
- IC50 (SK-NEP-1; Homo sapiens, SK-NEP-1, read-out: Cell Count IC50): 1.47 nM
- Cell Count Activity Area (SK-NEP-1): 4.22
- Cell Count Activity Area (DMS114): 4.14
- EC50 (DMS114; Homo sapiens): 0.0747 nM
- GI50 (DMS114; Homo sapiens): 0.0478 nM
- IC50 (DMS114; Homo sapiens, DMS-114, read-out: Cell Count IC50): > 1000 nM
- Cell Count Activity Area (Hs 729): 0.55
- EC50 (Hs 729; [1]): > 1000 nM
- GI50 (Hs 729; Homo sapiens): > 1000 nM
- IC50 (Hs 729; Homo sapiens): > 1000 nM
- Cell Count Activity Area (CHP-212): 4.13
- EC50 (CHP-212; Homo sapiens, CHP-212, read-out: Cell Count EC50): 0.0376 nM
- GI50 (CHP-212; Homo sapiens): 0.0707 nM
- IC50 (CHP-212; Homo sapiens): > 1000 nM
- EC50 (SHP-77): > 1000 nM
- GI50 (SHP-77): > 1000 nM
- IC50 (SHP-77): > 1000 nM
- Cell Count Activity Area (SHP-77): 1.13
- EC50 (RKOE6): 0.0835 nM
- GI50 (RKOE6): 0.356 nM
- IC50 (RKOE6): 1.06 nM
- Cell Count Activity Area (RKOE6): 4.61
- Cell Count Activity Area (U-87 MG): 3.79
- EC50 (U-87 MG; [1]): 0.104 nM
- GI50 (U-87 MG; Homo sapiens): 0.384 nM
- IC50 (U-87 MG; [2]): > 1000 nM
- Cell Count Activity Area (A101D): 2.92
- EC50 (A101D; Homo sapiens): 0.184 nM
- GI50 (A101D; Homo sapiens): 0.721 nM
- IC50 (A101D; [2]): > 1000 nM
